Results published in patent US7307063B2, “Melanocortin metallopeptides for treatment of sexual dysfunction” (Palatin Technologies, Inc., priority 2001, dated 2007).
“And” between values parts separate entries of the source, which are not always exact repeats. Equal values may be shown once. Non-standard residues stand in square brackets, D forms with d. No end group written: not given here. Tiq = 1,2,3,4-tetrahydroisoquinoline-1-carboxylic acid; Bip = N[C@@H](Cc1ccc(-c2ccccc2)cc1)C(=O)O; dDip = N[C@@H](C(=O)O)C(c1ccccc1)c1ccccc1; 1Nal = N[C@@H](Cc1cccc2ccccc12)C(=O)O; 2Nal = N[C@@H](Cc1ccc2ccccc2c1)C(=O)O; aThr = C[C@H](O)[C@H](N)C(=O)O; 4‑Amc = not defined here; Ac6c = NC1(C(=O)O)CCCCC1; Nle = CCCC[C@H](N)C(=O)O; Ac5c = NC1(C(=O)O)CCCC1

Legend:
[1] = molecular target: T1, MC4-R (Homo sapiens, UniProt P32245); assay: Competitive binding assay: inhibition of 125I-NDP-α-MSH binding to HEK-293 membranes with cloned human receptor subtype 4; settings: Table 6; 1 μM; mean of triplicate
T1 construct: expressed in transfected cells; host or cells: HEK-293
T1 sequence (P32245 whole entry): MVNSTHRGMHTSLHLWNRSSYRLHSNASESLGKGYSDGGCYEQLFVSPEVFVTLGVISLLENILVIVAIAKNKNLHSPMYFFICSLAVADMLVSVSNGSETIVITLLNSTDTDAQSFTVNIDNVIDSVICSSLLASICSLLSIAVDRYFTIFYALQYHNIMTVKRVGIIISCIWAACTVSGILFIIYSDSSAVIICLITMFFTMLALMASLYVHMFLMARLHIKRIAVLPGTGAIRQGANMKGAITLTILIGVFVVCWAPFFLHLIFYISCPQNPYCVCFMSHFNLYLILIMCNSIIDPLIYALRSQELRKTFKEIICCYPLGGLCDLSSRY
Summary of the method: (§1)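 Radioligand displacement: Re-metallopeptide at a chosen concentration versus 125I-NDP-α-MSH on receptor membranes. Values are percent inhibition of specific binding, defined using 1 μM α-MSH; added peptides were run in triplicate and averaged.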

[2] = molecular target: T2, hMC5-R (Homo sapiens, UniProt P33032); assay: Competitive binding assay: inhibition of 125I-NDP-α-MSH binding to HEK-293 membranes with cloned human receptor subtype 5; settings: Table 6; 1 μM; mean of triplicate
T2 construct: expressed in transfected cells; host or cells: HEK-293
T2 sequence (P33032 whole entry): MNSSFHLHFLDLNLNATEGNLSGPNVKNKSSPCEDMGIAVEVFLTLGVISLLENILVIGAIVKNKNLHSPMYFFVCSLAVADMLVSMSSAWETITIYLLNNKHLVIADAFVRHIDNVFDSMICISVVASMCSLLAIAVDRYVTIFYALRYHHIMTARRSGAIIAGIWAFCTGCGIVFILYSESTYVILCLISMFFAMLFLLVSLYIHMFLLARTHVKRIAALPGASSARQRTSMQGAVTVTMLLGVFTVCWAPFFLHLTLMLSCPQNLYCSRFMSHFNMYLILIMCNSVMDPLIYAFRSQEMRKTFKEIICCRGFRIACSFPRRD
Protocol: (§2) Rhenium-complexed metallopeptides of the formulas given in Table 1 were prepared, with the metallopeptides complexed with rhenium using the rhenium transfer agent ReOCl3(PPh3)2 in the presence of 1,8-Diazabicyclo[5,4,0] undec-7-ene as a base, as disclosed in International Application PCT/US00/16396, filed Jun. 14, 2000, Melanocortin Metallopeptide Constructs, Combinatorial Libraries and Applications, incorporated by reference herein. Affinities of compounds were measured using membranes from HEK-293 cells containing cloned human melanocortin receptor subtypes 3, 4 and 5. MC1-R membranes were isolated from B16—F10 mouse melanoma cells. The assay tube also contained a chosen concentration of the test peptide of this invention, complexed to a rhenium metal ion as indicated, for determining its efficacy in inhibiting the binding of ^125I-NDP-α-MSH to its receptor. Non-specific binding was measured by complete inhibition of binding of ^125I-NDP-α-MSH in the assay with the presence of 1 μM α-MSH. 100% specific binding was defined as the difference in radioactivity (cpm) bound to cell membranes in the absence and presence of 1 μM α-MSH. The cpm obtained in presence of test compounds were normalized with respect to 100% specific binding to determine the percent inhibition of ^125I-NDP-α-MSH binding.
(§3) Peptide sequences set forth in Table 6 were prepared using conventional synthetic means. The resulting sequences were rhenium-complexed to form metallopeptides, with the metallopeptides complexed with rhenium using the rhenium transfer agent ReOCl3(PPh3)2 in the presence of 1,8-Diazabicyclo[5,4,0] undec-7-ene as a base. Percent inhibition was determined as in Example 1 using the Re-complexed metallopeptides, using the same methods as described therein. All measures are means of triplicate determinations.

[3] = molecular target: T3, hMC2-R (Homo sapiens, UniProt P41968); assay: Competitive binding assay of additional compounds, Table 6 hMC2-R; settings: 1 μM, mean of triplicate
T3 construct: expressed in transfected cells; host or cells: HEK-293
T3 sequence (P41968 whole entry): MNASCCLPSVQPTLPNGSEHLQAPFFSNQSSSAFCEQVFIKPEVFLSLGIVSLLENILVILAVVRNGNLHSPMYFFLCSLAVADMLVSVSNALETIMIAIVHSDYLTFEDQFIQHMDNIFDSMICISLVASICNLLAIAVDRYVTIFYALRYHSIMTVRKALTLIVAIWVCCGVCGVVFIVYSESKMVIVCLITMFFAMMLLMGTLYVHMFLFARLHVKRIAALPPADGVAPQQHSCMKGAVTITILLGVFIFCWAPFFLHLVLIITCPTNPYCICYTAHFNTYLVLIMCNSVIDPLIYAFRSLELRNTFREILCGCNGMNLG
Protocol: [The source words this procedure for another target and reports this target under the same test.] as §2, §3

[4] = molecular target: T4, MC1-R (Mus musculus, UniProt Q01727); assay: Competitive binding assay: inhibition of 125I-NDP-α-MSH binding to membranes from B16-F10 mouse melanoma cells; settings: Table 6; 1 μM; mean of triplicate
T4 construct: MC1-R membranes were isolated from B16—F10 mouse melanoma cells; endogenous in cells; host or cells: B16-F10 mouse melanoma cells
T4 sequence (Q01727 whole entry): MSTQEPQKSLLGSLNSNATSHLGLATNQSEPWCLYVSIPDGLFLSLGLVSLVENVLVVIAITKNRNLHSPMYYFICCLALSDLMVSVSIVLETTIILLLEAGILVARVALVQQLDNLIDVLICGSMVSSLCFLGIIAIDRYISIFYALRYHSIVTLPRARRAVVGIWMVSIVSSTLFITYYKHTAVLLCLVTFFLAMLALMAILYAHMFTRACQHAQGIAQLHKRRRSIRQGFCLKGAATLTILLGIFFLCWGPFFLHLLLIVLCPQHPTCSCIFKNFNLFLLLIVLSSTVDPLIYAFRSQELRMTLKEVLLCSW
Summary of the method: as §1

Substance	% Inhibition of Binding hMC4-R [1]	% Inhibition of Binding hMC5-R [2] [%]	% Inhibition of Binding hMC2-R [3] [%]	% Inhibition of Binding MC1-R [4]
Ac-[Nle]AY[dF]RCW-NH2	0%	44	0	66%
D-Tiq-D-Phe-Arg-Cys-Trp-NH2	13%	39	3	43%
NH2-(CH2)6-CO-Ser(Bzl)-D-Nal 2′-Arg-Nal 2′-Cys-NH2	95%	100	70	22%
Ac-Ala-His-D-Phe-Arg-Cys-Trp-NH2 ({Ac-Ala-H2N}-[dF]RCW-NH2; not fully specified; printed as Ac-Ala-His-D-Phe-Arg-Cys-Trp-NH2)	0%	9	0	61%
NH2(CH2)6CO-Ser(Bzl)-D-Nal 2′-Arg-Trp-Cys-NH2	96%	95	69	14%
1-amino-1-cyclopentane carboxyl-D-Phe-Arg-Trp-Cys-NH2 ([Ac5c][dF]RWC-NH2; N-terminus assumed; SMILES N=C(N)NCCC[C@H](NC(=O)[C@@H](Cc1ccccc1)NC(=O)C1(N)CCCC1)C(=O)N[C@@H](Cc1c[nH]c2ccccc12)C(=O)N[C@@H](CS)C(N)=O)	0%	14	7	23%
3′-Bromo phenyl acetyl-Arg-His-D-Phe(4′-Cl)-Cys-NH2	15%	0	11	47%
Pro-D-Phe-Arg-Trp-Cys-NH2 (P[dF]RWC-NH2; also: metal complex)	14%	0	0	39%
3′-Br Phenyl acetyl-Lys-Ala-D-Phe(2′-Cl)-Cys-Trp-NH2	34%	44	19	9%
Nal 2′-D-Phe-Arg-Trp-Cys-NH2 ([2Nal][dF]RWC-NH2; also: metal complex)	20%	62	0	8%
Ac-Nle-Ala-His-D-Phe-Arg-D-Nal 2′-Cys-NH2	90%	54	0	100%
3′-Br Phenyl acetyl-Lys-Ala-D-Phe(4′-CF3)-Cys-Trp-NH2	96% and 74%	83	77	4% and 10%
Amb-D-Phe-Arg-Cys-Trp-NH2	0%	1	0	39%
Ac-Ala-Ala-His-D-Phe-Arg-Cys-Trp-NH2 ({Ac-Ala-Ala-H2N}-[dF]RCW-NH2; not fully specified; printed as Ac-Ala-Ala-His-D-Phe-Arg-Cys-Trp-NH2)	4%	17	0	76%
3′-Bromo phenyl acetyl-Arg-Thr(Bzl)-D-Phe(4′-Cl)-Cys-NH2	6%	21	5	16%
allo-Thr-D-Phe-Arg-Cys-Trp-NH2 ([aThr][dF]RCW-NH2; also: metal complex)	0%	31	5	66%
Ac-[Nle]AF[dF]RCW-NH2	16%	71	0	58%

Substance	% Inhibition of Binding hMC4-R [1]	% Inhibition of Binding hMC5-R [2] [%]	% Inhibition of Binding hMC2-R [3] [%]	% Inhibition of Binding MC1-R [4]
Ac-Nle-Ala-Arg-D-Phe-Arg-Cys-Trp-NH2 (Ac-[Nle]AR[dF]RCW-NH2; not fully specified; printed as Ac-Nle-Ala-Arg-D-Phe-Arg-Cys-Trp-NH2)	39%	59	26	92%
3′-Bromo phenyl acetyl-Arg-Ala-D-Phe(4′-Cl)-Cys-NH2	59%	15	47	90%
3′-Bromo phenyl acetyl-Arg-Trp-D-Phe(4′-Cl)-Cys-NH2	17%	21	0	5%
3′-Bromo phenyl acetyl-Lys-Ala-D-Phe(4′-Me)-Cys-Trp-NH2	73%	80	19	0%
Hept-Ser(Bzl)-D-Phe(4′-Cl)-Arg-D-Trp-Cys-NH2	62%	79	37	24%
D-Nal 1′-D-Phe-Arg-Trp-Cys-NH2	13%	43	0	3%
Nal 1′-D-Phe-Arg-Trp-Cys-NH2 ([1Nal][dF]RWC-NH2; also: metal complex)	15%	68	3	11%
Ac-Nle-Ala-Glu-D-Phe-Arg-Cys-Trp-NH2 (Ac-[Nle]AE[dF]RCW-NH2; not fully specified; printed as Ac-Nle-Ala-Glu-D-Phe-Arg-Cys-Trp-NH2)	12%	0	3	0%
[Bip][dF]RWC-NH2	19%	51	0	0%
[dDip][dF]RCW-NH2	2%	53	8	58%
Tic-D-Phe(2′-Cl)-Arg-Trp-Cys-NH2	69%	59	26	15%
Amb-D-Phe-Arg-Trp-Cys-NH2	0%	5	0	39%
1-amino-1-cyclohexane carboxyl-D-Phe-Arg-Trp-Cys-NH2 ([Ac6c][dF]RWC-NH2; N-terminus assumed; SMILES N=C(N)NCCC[C@H](NC(=O)[C@@H](Cc1ccccc1)NC(=O)C1(N)CCCCC1)C(=O)N[C@@H](Cc1c[nH]c2ccccc12)C(=O)N[C@@H](CS)C(N)=O)	1%	16	0	11%
4-Amc-D-Phe-Arg-Trp-Cys-NH2 ({4‑Amc}-[dF]RWC-NH2; not fully specified; printed as 4-Amc-D-Phe-Arg-Trp-Cys-NH2; reading uncertain)	6%	6	0	51%
Tiq-D-Phe-Arg-Cys-Trp-NH2 (Tiq-[dF]RCW-NH2; also: metal complex)	16%	56	3	53%
3′-Br Phenyl acetyl-Arg-Arg-D-Phe(4′-Cl)-Cys-Nal 1′-NH2	84%	89	85	90%
